Holding throughout (type): cell-based
For assay [1], the system named is Reconstructed Human Epidermis (RHE). As to the kind of experiment: Proteomic analysis (LC-MS/MS) of Reconstructed Human Epidermis topically treated with lipid in base emulsion. The following applies: lipid in base emulsion 24h, vs vehicle. The text has this:
FIGS. 1 to 5 show heatmaps using a log 2 scale with up- or downregulation of respective proteins upon treatment with 0,01% (01), 0,03% (03) and 0,15% (15) of respective ceramide in vehicle as compared to vehicle without ceramide (VEH) (FIG. 1: LacCerNS, FIG. 2: GlcCerNS, FIG. 3: CerNP. FIG. 4: CerNG, FIG. 5: CerNS); detailed experimental setup explained in Example 4.
Material and methods: Reconstructed Human Epidermis (RHE) cell culture was used, as this system mimics the in vivo 3D structure of epidermal tissue as well as the conditions and processes that occur in normal epidermis. RHE were cultured using the medium provided by the manufacturer until analysis. RHE were maintained in survival for 24 hours, before RHE were topically treated with lipid in a base emulsion for 24h. 3 RHE were treated with base emulsion alone and 3 more remained untreated as a control batch (Ctrl). RHE were incubated under classical cell culture conditions (37° C., 5% CO2).
Sample preparation and LC-MS/MS analysis: Protein was extracted using the Pierce Total Protein Extraction Kit (Thermo Fisher) according to manufacturer's recommendations. The protein was mixed with Laemmli buffer and heated to 37° ° C. for 30 min. Protein concentration was determined by the BCA method and standardized for all samples. The samples were separated by SDS-PAGE and digested with trypsin overnight. The peptides generated were acidified and separated. The mass spectra were queried using Proteome Discoverer (version 2.5). The resulting MS/MS data were queried against the Homo sapiens proteome UP000005640 (20371 reviewed entries). Results were filtered based on unique peptides >2, and global peptide scores. Analyses were performed using Proteome Discoverer 2.5 to check for overall sample quality.
Bioinformatics and statistical analysis: Proteomic analysis returned a mean total of 34961 high-quality peptides corresponding to a mean 2422 identifiable and quantifiable RHE proteins among conditions. A summary of proteins differentially expressed within conditions is provided in Annexe 3. Proteins with a p-value≤0,05 in at least one of the concentrations tested for a lipid were considered significant and used for pairwise comparisons. Relevant proteins were classified by their biological processes and associated pathways using the publicly available gene ontology (GO) database provided by the Gene Ontology Consortium and Reactome. Interactome analysis was performed using Cytoscape combined with STRING.

Assay [2] concerns Human epidermal keratinocytes. Nature of the assay: Gene expression in keratinocytes, qPCR. The following applies: 200 ppm in DMSO, 1 week. As to the method:
(§1) Human epidermal keratinocytes are obtained from a commercial vendor. The cells are isolated from juvenile foreskin or from adult normal human tissue collected from various sites that include face, breast, abdomen, and thigh. The cells are cultivated in a T25 flask using a commercial keratinocyte Growth Medium which is a serum-free medium and optimized for the in vitro cultivation of epidermal keratinocytes without feeder cells. A commercial growth supplement and calcium is added to a final concentration of 1.2 mM to induce differentiation.
(§2) Upon reaching cell confluence, the cells are treated with either 200 ppm glucosylceramide or 200 ppm lactosylceramide, each dissolved in dimethyl sulfoxide (DMSO) for 1 week. The cells are homogenised with 2 mL chloroform:methanol (2:1), and transferred to a vial containing Phosphate Buffered Saline (PBS). The homogeniser is rinsed twice with solvent and all rinses are together. The organic phase is evaporated to dryness.
Gene expression is determined by isolating RNA samples from the keratinocytes using a Qiagen RNeasy kit with DNase I digestion. Reverse transcription is performed using a high-capacity cDNA kit, cDNA samples of 40 ng are used for qPCR. Taqman gene expression assay is purchased commercially, and the qPCR reaction is performed using a fast amplifier. […] Relative gene expression is calculated by comparative CT method.

Assay [3] has as its system Human epidermal keratinocytes. Nature of the assay: Ceramide levels produced by keratinocytes, HPTLC. Particulars: 200 ppm in DMSO, 1 week; compared to untreated keratinocytes. As for the experimental part:
as §1, §2
Ceramide levels produced by the keratinocytes are measured by a modified high-performance thin layer chromatography (HPTLC) method. […] The plates are stained with 3% copper acetate in 8% phosphoric acid and charred at 160° C. for the quantitation of ceramides. Quantification is performed against known quantities of Ceramide NP by laser scanning densitometry. Each plate is scanned at 425 nm and quantified using WinCATS software.

For `CCCCCCCCCCCCCCCCCC(=O)N[C@@H](CO)[C@H](O)CCCCCCCCCCCCCCC` [ceramide NG], in assay [1], the “ATP synthase subunit delta (mitochondrial) regulation” value (shortened to “ATP synthase subunit delta”) is reported as “upregulation”, the “ATP synthase subunit g (mitochondrial) regulation” value (from here on “ATP synthase subunit g”) is listed as “upregulation”, the “ceramide synthase 4 protein regulation” value is listed as “upregulation” and the “cytochrome c oxidase subunit 6C regulation” value is listed as “upregulation”. Moreover, in assay [1], the loricrin protein regulation entry is recorded as “upregulation”; the “phosphomevalonate kinase protein regulation” value was “upregulation”; the “proteins of the mitochondrial respiratory chain, regulation” value (“proteins” for short) was “upregulation”; the repetin protein regulation result is given as “upregulation”. In addition, in assay [1], the “small proline-rich protein 2D regulation” value is reported as “upregulation”.

With `CCCCCCCCCCCCCCCCCC(=O)N[C@@H](CO)[C@H](O)[C@H](O)CCCCCCCCCCCCCC` [ceramide NP], in assay [1], the “NADH dehydrogenase [ubiquinone] iron-sulfur protein 8 (mitochondrial) regulation” value is recorded as “upregulation”, the “long-chain-fatty-acid-CoA ligase 3 protein regulation” value is reported as “upregulation”, the “phosphomevalonate kinase protein regulation” value is “upregulation” and the “phosphopantothenate-cysteine ligase protein regulation” value is “upregulation”. In addition, in assay [1], the “proteins” value was “upregulation” and the syndecan-1 protein regulation entry is on record as “upregulation”.

With `CCCCCCCCCCCCC/C=C/[C@@H](O)[C@H](CO)NC(=O)CCCCCCCCCCCCCCCCC` [ceramide NS], in assay [1], the cornifin-B protein regulation entry is given as “upregulation”, the filaggrin-2 protein regulation entry is “upregulation”, the kallikrein-5 protein regulation result was “upregulation” and the “phosphomevalonate kinase protein regulation” value is on record as “upregulation”. Moreover, the syndecan-1 protein regulation result in assay [1] is “upregulation”.

For the compound `CCCCCCCCCCCCC/C=C/[C@@H](O)[C@H](CO[C@@H]1O[C@H](CO)[C@@H](O)[C@H](O)[C@H]1O)NC(=O)CCCCCCCCCCCCCCCCC` [glucosyl ceramide], in assay [2], the IL8 gene expression result was “reduced gene expression”, the TNF gene expression entry was “reduced gene expression”, the “expression of the ABCA12 gene” value is reported as “increases” and the involucrin gene expression result is on record as “increase in expression”. In addition, in assay [2], the transglutaminase-1 gene expression result is “increase in expression” and the “β-glucocerebrosidase (GBA) expression” value is “Up-regulation”. Also, the “Total ceramides in keratinocytes” value in assay [3] was “elevated”. Also, in assay [1], the “3-ketodihydrosphingosine reductase protein regulation” value is on record as “upregulation”, the “ATP synthase subunit delta” value was “upregulation”, the “ATP synthase subunit g” value was “upregulation” and the “ATP-dependent zinc metalloprotease YME1L1 regulation” value was “upregulation”. In assay [1], the “NAD-dependent malic enzyme (mitochondrial) regulation” value is “upregulation”, the “NADH dehydrogenase [ubiquinone] 1 alpha subcomplex subunit 8 regulation” value is “upregulation”, the “NADH dehydrogenase [ubiquinone] iron-sulfur protein 2 (mitochondrial) regulation” value was “upregulation” and the “acetyl-coenzyme A synthetase (cytoplasmic) protein regulation” value is given as “upregulation”. In addition, in assay [1], the “cytochrome c oxidase subunit 6C regulation” value is recorded as “upregulation”; the “malonate-CoA ligase ACSF3 (mitochondrial) protein regulation” value is on record as “upregulation”; the “phosphomevalonate kinase protein regulation” value is “upregulation”; the “proteins” value is listed as “upregulation”.

Take `CCCCCCCCCCCCC/C=C/[C@@H](O)[C@H](CO[C@@H]1O[C@H](CO)[C@@H](O[C@@H]2O[C@H](CO)[C@H](O)[C@H](O)[C@H]2O)[C@H](O)[C@H]1O)NC(=O)CCCCCCCCCCCCCCCCC` [lactosylceramide]: in assay [2], the IL8 gene expression entry is on record as “reduced gene expression”, the TNF gene expression entry is “reduced gene expression”, the “expression of the ABCA12 gene” value was “increases” and the involucrin gene expression entry is “increase in expression”. Besides, in assay [2], the transglutaminase-1 gene expression entry was “increase in expression” and the “β-glucocerebrosidase (GBA) expression” value is on record as “Up-regulation”. Besides, the “Total ceramides in keratinocytes” value in assay [3] is reported as “elevated”. In assay [1], the “ATP synthase subunit delta” value is “upregulation”, the “ATP synthase subunit g” value is given as “upregulation”, the “ATP-dependent zinc metalloprotease YME1L1 regulation” value is listed as “upregulation” and the “NAD-dependent malic enzyme (mitochondrial) regulation” value is on record as “upregulation”. For the same compound, in assay [1], the “ceramide synthase 4 protein regulation” value is reported as “upregulation”, the “cytochrome b-c1 complex subunit 9 regulation” value is “upregulation”, the “cytochrome c oxidase subunit 2 regulation” value was “upregulation” and the “cytochrome c oxidase subunit 6C regulation” value is recorded as “upregulation”. In assay [1], the “cytochrome c oxidase subunit NDUFA4 regulation” value is reported as “upregulation”; the “phosphomevalonate kinase protein regulation” value was “upregulation”; the “proteins” value is on record as “upregulation”; the syndecan-1 protein regulation entry is “upregulation”.

These data come from US20240238186A1, “Topical Compositions Comprising (Glyco)Sphingolipids and/or (Glyco)Ceramides” (CarboCode S.A., priority 2021, published 2024).
